Data published in PubChem BioAssay (NCI).
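Five compound concentrations were applied to cells in 96-well plates for 48 hours; endpoints were derived by simple linear interpolation of the resulting dose-response curve. Definition used: TGI = concentration required for complete inhibition of growth.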

Assays:
Assay in all cases: growth of human tumour cells (NCI), 48 h
[1] = test system: 786-0 renal
[2] = test system: A498 renal
[3] = test system: A549 NSCLC
[4] = test system: ACHN renal
[5] = test system: CAKI-1 renal
[6] = test system: COLO 205 colon
[7] = test system: DU-145 prostate
[8] = test system: EKVX NSCLC
[9] = test system: HCC-2998 colon
[10] = test system: HCT-116 colon
[11] = test system: HCT-15 colon
[12] = test system: HL-60(TB) leukemia
[13] = test system: HOP-62 NSCLC
[14] = test system: HOP-92 NSCLC
[15] = test system: HT29 colon
[16] = test system: IGROV1 ovarian
[17] = test system: K-562 leukemia
[18] = test system: KM12 colon
[19] = test system: LOX IMVI melanoma
[20] = test system: M14 melanoma
[21] = test system: MALME-3M melanoma
[22] = test system: MCF7 breast
[23] = test system: MDA-MB-435
[24] = test system: MDA-N
[25] = test system: NCI-H23 lung
[26] = test system: NCI-H460 lung
[27] = test system: NCI-H522 lung
[28] = test system: NCI/ADR-RES ovarian
[29] = test system: OVCAR-3 ovarian
[30] = test system: OVCAR-4 ovarian
[31] = test system: OVCAR-5 ovarian
[32] = test system: OVCAR-8 ovarian
[33] = test system: PC-3 prostate
[34] = test system: RXF 393 renal
[35] = test system: SF-268 CNS
[36] = test system: SF-295 CNS
[37] = test system: SF-539 CNS
[38] = test system: SK-MEL-2 melanoma
[39] = test system: SK-MEL-28 melanoma
[40] = test system: SK-MEL-5 melanoma
[41] = test system: SK-OV-3 ovarian
[42] = test system: SN12C renal
[43] = test system: SNB-19 CNS
[44] = test system: SNB-75 CNS
[45] = test system: SR leukemia
[46] = test system: SW-620 colon
[47] = test system: T-47D breast
[48] = test system: TK-10 renal
[49] = test system: U251 CNS
[50] = test system: UACC-257 melanoma
[51] = test system: UACC-62 melanoma
[52] = test system: UO-31 renal
[53] = test system: BT-549 breast
[54] = test system: MDA-MB-231 breast
[55] = test system: MOLT-4 leukemia
[56] = test system: NCI-H226 lung
[57] = test system: RPMI-8226 leukemia
[58] = test system: CCRF-CEM leukemia

Q: For `OC1(c2ccccc2)CCCCCCCCC(O)(c2ccccc2)CCCCCCCC1` (stereo not given), which TGI [1] is on record?
A: > 100 µM

Q: And the TGI [2]?
A: > 100 µM

Q: What about the TGI [3] of the same molecule?
A: > 100 µM

Q: And the TGI [4]?
A: > 100 µM

Q: What about the TGI [5] of the same molecule?
A: > 100 µM

Q: What about the TGI [6] of the same molecule?
A: > 100 µM

Q: And the TGI [7]?
A: > 100 µM

Q: And the TGI [8]?
A: > 100 µM

Q: And the TGI [9]?
A: > 100 µM

Q: And the TGI [10]?
A: > 100 µM

Q: And the TGI [11]?
A: > 100 µM

Q: What about the TGI [12] of the same molecule?
A: > 100 µM

Q: And the TGI [13]?
A: > 100 µM

Q: What about the TGI [14] of the same molecule?
A: > 100 µM

Q: What about the TGI [15] of the same molecule?
A: > 100 µM

Q: What about the TGI [16] of the same molecule?
A: > 100 µM

Q: And the TGI [17]?
A: > 100 µM

Q: And the TGI [18]?
A: > 100 µM

Q: And the TGI [19]?
A: > 100 µM

Q: What about the TGI [20] of the same molecule?
A: > 100 µM

Q: What about the TGI [21] of the same molecule?
A: > 100 µM

Q: And the TGI [22]?
A: > 100 µM

Q: What about the TGI [23] of the same molecule?
A: > 100 µM

Q: What about the TGI [24] of the same molecule?
A: > 100 µM

Q: And the TGI [25]?
A: > 100 µM

Q: What about the TGI [26] of the same molecule?
A: > 100 µM

Q: And the TGI [27]?
A: > 100 µM

Q: And the TGI [28]?
A: > 100 µM

Q: And the TGI [29]?
A: > 100 µM

Q: What about the TGI [30] of the same molecule?
A: > 100 µM

Q: What about the TGI [31] of the same molecule?
A: > 100 µM

Q: And the TGI [32]?
A: > 100 µM

Q: What about the TGI [33] of the same molecule?
A: > 100 µM

Q: And the TGI [34]?
A: > 100 µM

Q: And the TGI [35]?
A: > 100 µM

Q: And the TGI [36]?
A: > 100 µM

Q: What about the TGI [37] of the same molecule?
A: > 100 µM

Q: And the TGI [38]?
A: > 100 µM

Q: And the TGI [39]?
A: > 100 µM

Q: And the TGI [40]?
A: > 100 µM

Q: What about the TGI [41] of the same molecule?
A: > 100 µM

Q: What about the TGI [42] of the same molecule?
A: > 100 µM

Q: And the TGI [43]?
A: > 100 µM

Q: What about the TGI [44] of the same molecule?
A: > 100 µM

Q: What about the TGI [45] of the same molecule?
A: > 100 µM

Q: What about the TGI [46] of the same molecule?
A: > 100 µM

Q: What about the TGI [47] of the same molecule?
A: > 100 µM

Q: And the TGI [48]?
A: > 100 µM

Q: What about the TGI [49] of the same molecule?
A: > 100 µM

Q: What about the TGI [50] of the same molecule?
A: > 100 µM

Q: What about the TGI [51] of the same molecule?
A: > 100 µM

Q: And the TGI [52]?
A: > 100 µM

Q: With `NN/C(=N\S(=O)(=O)c1ccc(-c2ccccn2)s1)Nc1ccc(Cl)cc1` as the molecule, how does the TGI [1] read?
A: > 100 µM

Q: What about the TGI [2] of the same molecule?
A: > 100 µM

Q: What about the TGI [3] of the same molecule?
A: > 100 µM

Q: What about the TGI [4] of the same molecule?
A: > 100 µM

Q: What about the TGI [53] of the same molecule?
A: > 100 µM

Q: And the TGI [5]?
A: > 100 µM

Q: And the TGI [6]?
A: > 100 µM

Q: What about the TGI [7] of the same molecule?
A: > 100 µM

Q: And the TGI [8]?
A: > 100 µM

Q: What about the TGI [10] of the same molecule?
A: > 100 µM

Q: And the TGI [11]?
A: > 100 µM

Q: And the TGI [12]?
A: > 100 µM

Q: What about the TGI [13] of the same molecule?
A: > 100 µM

Q: And the TGI [14]?
A: > 100 µM

Q: What about the TGI [15] of the same molecule?
A: > 100 µM

Q: What about the TGI [16] of the same molecule?
A: > 100 µM

Q: And the TGI [17]?
A: > 100 µM

Q: And the TGI [18]?
A: > 100 µM

Q: And the TGI [19]?
A: > 100 µM

Q: And the TGI [20]?
A: > 100 µM

Q: What about the TGI [22] of the same molecule?
A: > 100 µM

Q: What about the TGI [54] of the same molecule?
A: > 100 µM

Q: What about the TGI [24] of the same molecule?
A: > 100 µM

Q: What about the TGI [55] of the same molecule?
A: > 100 µM

Q: And the TGI [56]?
A: > 100 µM

Q: And the TGI [25]?
A: > 100 µM

Q: And the TGI [26]?
A: > 100 µM

Q: What about the TGI [27] of the same molecule?
A: 57.1 µM

Q: And the TGI [28]?
A: > 100 µM

Q: What about the TGI [29] of the same molecule?
A: > 100 µM

Q: And the TGI [30]?
A: > 100 µM

Q: And the TGI [31]?
A: > 100 µM

Q: And the TGI [32]?
A: > 100 µM

Q: What about the TGI [33] of the same molecule?
A: > 100 µM

Q: What about the TGI [57] of the same molecule?
A: > 100 µM

Q: What about the TGI [34] of the same molecule?
A: 94 µM

Q: What about the TGI [35] of the same molecule?
A: 84.2 µM

Q: What about the TGI [36] of the same molecule?
A: > 100 µM

Q: And the TGI [37]?
A: > 100 µM

Q: What about the TGI [38] of the same molecule?
A: > 100 µM

Q: What about the TGI [39] of the same molecule?
A: > 100 µM

Q: What about the TGI [40] of the same molecule?
A: > 100 µM

Q: And the TGI [41]?
A: > 100 µM

Q: And the TGI [42]?
A: > 100 µM

Q: And the TGI [43]?
A: > 100 µM

Q: What about the TGI [44] of the same molecule?
A: 69.2 µM

Q: And the TGI [46]?
A: > 100 µM

Q: What about the TGI [47] of the same molecule?
A: > 100 µM

Q: And the TGI [48]?
A: > 100 µM

Q: What about the TGI [49] of the same molecule?
A: > 100 µM

Q: And the TGI [50]?
A: > 100 µM

Q: What about the TGI [51] of the same molecule?
A: > 100 µM

Q: What about the TGI [52] of the same molecule?
A: > 100 µM

Q: How did the TGI [1] turn out when `O=c1c2ccccc2n2c(=S)[nH]nc2n1-c1ccccc1` was run?
A: > 100 µM

Q: And the TGI [2]?
A: > 100 µM

Q: What about the TGI [3] of the same molecule?
A: > 100 µM

Q: And the TGI [4]?
A: > 100 µM

Q: What about the TGI [5] of the same molecule?
A: > 100 µM

Q: And the TGI [58]?
A: > 100 µM

Q: And the TGI [6]?
A: > 100 µM

Q: And the TGI [7]?
A: > 100 µM

Q: And the TGI [8]?
A: > 100 µM

Q: And the TGI [9]?
A: > 100 µM

Q: And the TGI [10]?
A: > 100 µM

Q: And the TGI [11]?
A: > 100 µM

Q: What about the TGI [12] of the same molecule?
A: > 100 µM

Q: What about the TGI [13] of the same molecule?
A: > 100 µM

Q: What about the TGI [15] of the same molecule?
A: > 100 µM

Q: What about the TGI [16] of the same molecule?
A: > 100 µM

Q: What about the TGI [17] of the same molecule?
A: > 100 µM

Q: And the TGI [18]?
A: > 100 µM

Q: What about the TGI [19] of the same molecule?
A: > 100 µM

Q: What about the TGI [20] of the same molecule?
A: > 100 µM

Q: What about the TGI [21] of the same molecule?
A: > 100 µM

Q: What about the TGI [22] of the same molecule?
A: > 100 µM

Q: And the TGI [54]?
A: > 100 µM

Q: What about the TGI [23] of the same molecule?
A: > 100 µM

Q: What about the TGI [24] of the same molecule?
A: > 100 µM

Q: And the TGI [55]?
A: > 100 µM

Q: And the TGI [56]?
A: > 100 µM

Q: And the TGI [25]?
A: > 100 µM

Q: And the TGI [26]?
A: > 100 µM

Q: What about the TGI [27] of the same molecule?
A: > 100 µM

Q: And the TGI [28]?
A: > 100 µM

Q: What about the TGI [29] of the same molecule?
A: > 100 µM

Q: What about the TGI [30] of the same molecule?
A: > 100 µM

Q: And the TGI [31]?
A: > 100 µM

Q: What about the TGI [32] of the same molecule?
A: > 100 µM

Q: And the TGI [33]?
A: > 100 µM

Q: And the TGI [34]?
A: > 100 µM

Q: And the TGI [35]?
A: > 100 µM

Q: What about the TGI [36] of the same molecule?
A: > 100 µM

Q: What about the TGI [37] of the same molecule?
A: > 100 µM

Q: What about the TGI [38] of the same molecule?
A: > 100 µM

Q: What about the TGI [39] of the same molecule?
A: > 100 µM

Q: What about the TGI [40] of the same molecule?
A: > 100 µM

Q: What about the TGI [41] of the same molecule?
A: > 100 µM

Q: What about the TGI [42] of the same molecule?
A: > 100 µM

Q: And the TGI [43]?
A: > 100 µM

Q: And the TGI [44]?
A: 84 µM

Q: What about the TGI [45] of the same molecule?
A: > 100 µM

Q: What about the TGI [46] of the same molecule?
A: > 100 µM

Q: What about the TGI [47] of the same molecule?
A: > 100 µM

Q: And the TGI [48]?
A: > 100 µM

Q: What about the TGI [49] of the same molecule?
A: > 100 µM

Q: What about the TGI [50] of the same molecule?
A: > 100 µM

Q: And the TGI [51]?
A: > 100 µM

Q: What about the TGI [52] of the same molecule?
A: > 100 µM
